Calls of active or inactive are those of the source.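 The calls were made as follows: active = more than half of replicate measurements showing over 20% loss of kinase signal relative to plate controls; inconclusive = some but at most half of replicates over 20% loss; inactive = no replicate over 20% signal loss.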

The target of the assay is Glycogen synthase kinase-3 alpha (Homo sapiens) (UniProt P49840). The assay is described as follows: concentration-response blocking of human GSK3A – biochemical, luminescence, cell-free homogeneous, retest, dose response (AID 463203). As to conditions: GSK-3 alpha enzyme, ADP-Glo luminescence, 60 min.
Chain of Glycogen synthase kinase-3 alpha (Homo sapiens) (P49840 whole entry, looked up): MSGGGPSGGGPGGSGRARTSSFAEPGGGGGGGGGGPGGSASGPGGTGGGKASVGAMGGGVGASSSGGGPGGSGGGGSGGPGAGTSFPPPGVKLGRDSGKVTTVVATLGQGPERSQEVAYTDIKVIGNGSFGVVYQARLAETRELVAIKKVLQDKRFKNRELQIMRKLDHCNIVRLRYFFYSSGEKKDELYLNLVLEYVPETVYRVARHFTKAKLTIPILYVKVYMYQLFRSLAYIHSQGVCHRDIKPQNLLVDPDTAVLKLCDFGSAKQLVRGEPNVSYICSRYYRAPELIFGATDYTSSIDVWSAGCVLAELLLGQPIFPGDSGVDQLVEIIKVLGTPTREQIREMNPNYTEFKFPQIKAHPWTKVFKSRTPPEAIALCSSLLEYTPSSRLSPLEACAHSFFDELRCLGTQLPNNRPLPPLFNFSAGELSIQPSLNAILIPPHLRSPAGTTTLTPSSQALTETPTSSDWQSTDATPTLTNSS
In the case of `CCOC(=O)N1CCc2c(sc3nc4n(c(=O)c23)N=C(C)CS4)C1`, the AC50 (commonly the concentration at which the activity in the assay is half-maximal) is > 30 µM (inactive). As for `CCOc1cccc(-c2c(C(=O)N/N=C(\C)c3cccnc3)nnn2-c2nonc2N)c1`, the figure is 5.21 µM. Then `CCN1/C(=C\C(C)=O)Sc2ccc(OC)cc21`, with 17.4 µM.

In the case of `CNC(=O)CSc1nnc(-c2ccco2)n1-c1ccccc1OC`, the AC50 is > 30 µM (inactive). For the compound `Cc1ccc(S(=O)(=O)Nc2ccc(O)c3ncccc23)cc1`, the AC50 is > 30 µM (inactive). As to `S=c1sc2ccccc2n1CCc1ccncc1`, the AC50 was 4.51 µM. As for `COc1ccc(Nc2nc(S(=O)(=O)c3ccc(C)cc3)c(Cl)s2)cc1`, the figure is > 30 µM (inactive); as for `Cc1ccc(S(=O)(=O)N2C(=O)/C(=C3\SC(=S)NC3=O)c3ccccc32)cc1`, > 30 µM (inactive). As for `COc1ccc(/C=C2\Oc3cc(OCC(=O)N4CCC[C@H]4C(=O)O)ccc3C2=O)cc1OC`, the figure is > 30 µM (inactive); as for `CC1(C)CC(=O)C(C2c3ccccc3Oc3ccccc32)C(=O)C1`, > 30 µM (inactive); as for `COc1cc(/C=N/NC(=O)c2cccs2)ccc1O`, > 30 µM (inactive). Turning to `COc1cc(OC)cc(C2C(C#N)=C(N)Oc3n[nH]c(-c4cccnc4)c32)c1` (stereo not given), the AC50 is > 30 µM (inactive). As for `COc1ccc(OC)c(NC(=O)c2nnn(Cc3ccc(Br)cc3F)c2N)c1`, the figure is > 30 µM (inactive). Take `O=C(Nc1cc(F)cc(F)c1)c1ccc(NCCCN2CCCCCC2)c([N+](=O)[O-])c1`: the AC50 is > 30 µM (inactive). As for `O=c1[nH]c(=O)n(Cc2ccco2)c(O)c1/C=N/N1CCCCC1`, the figure is > 30 µM (inactive); as for `CCc1cc2c3c(c(=O)oc2cc1O)CCCC3`, > 30 µM (inactive). As for `Fc1ccc(Nc2ncnc3sccc23)cc1`, the figure is > 30 µM (inactive); as for `O=C(COC(=O)c1ccc(F)cc1F)Nc1ccc(Cl)cn1`, > 30 µM (inactive). As for `Nc1ccc2nc(C3CCCCC3)[nH]c2c1`, the figure is > 30 µM (inactive). As for `Clc1ccc(C2=Nn3c(nnc3-c3cccs3)SC2)cc1`, the AC50 is > 30 µM (inactive).

`Cc1ccccc1Cn1c(-c2ccc(=O)[nH]c2)nc2ccccc21`: the AC50 was > 30 µM (inactive). Then `Fc1cccc(Nc2nc(-c3ccncc3)nc3ccccc23)c1`, with > 30 µM (inactive). As for `COc1cccc(C2CC(=O)Nc3cc(OC)c(OC)c(OC)c32)c1OC` (stereo not given), the figure is > 30 µM (inactive). Then `CC(=O)c1cnc(Nc2ccccc2)s1`, with 20.2 µM; and `O=C1C(SCCO)=C(SCCO)C(=O)c2ccccc21`, with > 30 µM (inactive); and `Cc1c(C(=O)N2CCOCC2)oc2ccc(S(=O)(=O)N3CCCC3)cc12`, with > 30 µM (inactive). For the compound `COc1ccccc1N1C(=O)C2C(c3ccccc3F)NN(C(=O)c3ccc(C)cc3)C2C1=O` (stereo not given), the AC50 was > 30 µM (inactive).

Regarding `O=c1[nH]c(=O)n(CCC2=CCCCC2)c(O)c1C=NCCCn1ccnc1`, the AC50 was 28.6 µM.

As for `O=C(Nc1nccs1)C1CCN(S(=O)(=O)c2cnc[nH]2)CC1`, the AC50 was > 30 µM (inactive). For the compound `NC1=NC(=O)/C(=C/c2ccc(-c3ccc(S(N)(=O)=O)cc3)o2)S1`, the AC50 is 0.397 µM. `CCCNc1nc(Cl)nc(Nc2ccc(Cl)cc2)n1`: the AC50 was > 30 µM (inactive). Then `COc1cc(/C=N/NC(=O)c2cnccn2)ccc1O`, with > 30 µM (inactive). As for `Cc1cc2nc(-c3cccnc3SCC(=O)NC(C)C)[nH]c2cc1C`, the AC50 is > 30 µM (inactive). Then `COc1ccc2c3c(cccc13)OC2=O`, with > 30 µM (inactive). As for `COc1ccc(/C=C/c2nc3ccccc3n2C)cc1`, the AC50 was 11.4 µM.

In the case of `O=C(CSc1nnc(SCC(=O)c2ccco2)s1)c1ccco1`, the AC50 is > 30 µM (inactive). As for `CC(C)N1C(=O)/C(=C/C=C/c2ccco2)C(=O)N(Cc2ccco2)C1=O`, the figure is > 30 µM (inactive); as for `CN(C)C(=S)Nc1ccc([N+](=O)[O-])cc1`, > 30 µM (inactive). As to `CCN(CC)CCOc1ccc2c(c1)C(=NNC(=O)c1ccccn1)c1cc(OCCN(CC)CC)ccc1-2`, the AC50 was > 30 µM (inactive). Then `Nc1c(S(=O)(=O)c2ccccc2)nnn1-c1ccccc1`, with > 30 µM (inactive); and `C#CCOCCOCCOCCNc1nc(N2CCOCC2)nc(N2CCN(C(=O)[C@H](CCC(=O)O)n3cc([C@@H](N)CCCCN)nn3)CC2)n1`, with > 30 µM (inactive). As for `CC1=C(C(=O)Nc2cccc(F)c2)C(c2ccsc2)C2=C(CC(C)(C)CC2=O)N1` (stereo not given), the figure is > 30 µM (inactive); as for `O=C(Nc1nc2c(s1)CCCC2)c1ccc(Br)s1`, > 30 µM (inactive). Consider `CCOc1ccc(-c2nonc2NC(=O)c2ccco2)cc1`, for which the AC50 is > 30 µM (inactive). As for `Oc1ccc(/C=N/Nc2nccnc2Cl)cc1`, the AC50 was 24.8 µM.

As to `CCOc1ccc2nnc(-c3ccc(Br)cc3)n2n1`, the AC50 is > 30 µM (inactive). Turning to `Cc1cc2[nH]c(=S)[nH]c2cc1C`, the AC50 was > 30 µM (inactive).

On to `C#CCOCCOCCOCCNc1nc(N2CCN(C(=O)[C@H](CCC(=O)O)n3cc([C@@H](N)CCCCN)nn3)CC2)nc(N2CCN(C(=O)[C@H](CCC(=O)O)n3cc([C@@H](N)CCCCN)nn3)CC2)n1`, for which the AC50 was > 30 µM (inactive). For `COc1ccc2nc(NC(=O)CSc3nnc(-c4ccoc4C)n3C)sc2c1`, the AC50 is 4.62 µM. Then `COc1ccc(/C=N/NC(=O)CSCc2ccc([N+](=O)[O-])cc2)cc1OC`, with > 30 µM (inactive); and `COC(=O)C1=C(C(=O)OC)C(c2cc(Cl)ccc2O)c2sc(=O)[nH]c2S1` (stereo not given), with 28.4 µM.

For the compound `CC1CCN(CCCNc2cc(NCCO)c([N+](=O)[O-])c3nonc23)CC1`, the AC50 was > 30 µM (inactive). Take `COc1cccc(-c2c(C(=O)N/N=C(\C)c3cccs3)nnn2-c2nonc2N)c1`: the AC50 was 1.61 µM.

For the compound `CCN(C(=O)C1CCCN1S(=O)(=O)c1cccc2nsnc12)c1ccccc1` (stereo not given), the AC50 is 23.9 µM. As for `COc1ccc([C@H]2[C@H](C(=O)C(C)(C)C)N3N=Cc4ccccc4C3[C@]23N=C(c2ccccc2)OC3=O)cc1OC` (stereo not given in full), the figure is > 30 µM (inactive); as for `N#CC1=C2SCN(c3ccccc3)CN2C(=O)CC1c1ccccc1Cl` (stereo not given), > 30 µM (inactive); as for `Cc1[nH]nc2c1C(c1ccsc1)C1=C(CC(C)(C)CC1=O)N2` (stereo not given), 1.06 µM.

As for `Cc1csc(NC(=O)C2CCCN(S(=O)(=O)c3cnc[nH]3)C2)n1` (stereo not given), the AC50 is > 30 µM (inactive). As for `CCOC(=O)Cc1csc(NC(=O)C2CCCN(S(=O)(=O)c3cnc[nH]3)C2)n1` (stereo not given), the figure is > 30 µM (inactive); as for `O=C(O)c1ccc(N=Nc2c(O)[nH]c3ccc(Br)cc23)cc1`, 3.54 µM.

On to `COc1ccc(CC(=O)Oc2ccccc2C)cc1`, for which the AC50 was > 30 µM (inactive). Then `Cc1ccc(N(CC(O)CN2CCCCC2)S(=O)(=O)c2ccccc2)cc1` (stereo not given), with > 30 µM (inactive). Consider `Cc1ccsc1C(=O)OCC(=O)N1C(C)CCCC1C` (stereo not given), for which the AC50 was > 30 µM (inactive). In the case of `CC(/C=N/NC(=O)c1nnn(-c2nonc2N)c1C(C)C)=C\c1ccco1`, the AC50 is > 30 µM (inactive). As for `CCCCCCCCOC(=O)C1=C(C)Nc2nnnn2C1c1cccs1` (stereo not given), the figure is > 30 µM (inactive); as for `COc1ccc(-n2c(C)nc(N)c2C(=O)c2ccccc2)cc1`, > 30 µM (inactive); as for `Cc1ccc(Sc2nc(-c3ccccc3)nnc2C(F)(F)F)cc1`, > 30 µM (inactive).

`COc1cccc(/C=N/Nc2ccc([N+](=O)[O-])cn2)c1O`: the AC50 is > 30 µM (inactive). In the case of `O=C(c1ccc2c(c1)OCO2)N1CCC2(CC1)OCCO2`, the AC50 is > 30 µM (inactive). As for `COc1cccc(/C=N/n2cncn2)c1OCC#N`, the figure is > 30 µM (inactive); as for `CSc1ccc(-c2cc(=O)c3ccccc3o2)cc1`, > 30 µM (inactive). For `Cc1cc(Nc2ccc(C(=O)O)cc2)nc(N)n1`, the AC50 was > 30 µM (inactive). As for `COc1ccc(CC(=S)N2CCOCC2)cc1`, the figure is > 30 µM (inactive); as for `COc1ccc(-c2csc3nc(C)nc(N4CCC(C)CC4)c23)cc1OC`, > 30 µM (inactive). `COc1ccccc1NC(=O)c1cc2ccc(O)cc2o/c1=N\O`: the AC50 was > 30 µM (inactive). Regarding `COC(=O)c1c(NC(=O)CN2C(=O)NC3(CCC(C(C)(C)C)CC3)C2=O)sc2c1CCCCC2` (stereo not given), the AC50 was > 30 µM (inactive). With `Cc1cc(NC(=O)COC(=O)c2cc(S(=O)(=O)N3CCOCC3)ccc2N2CCCCC2)no1`, the AC50 was 10.1 µM. Then `COC(=O)C1CSc2[nH]c(=O)sc2C1c1ccc(O)c(OC)c1` (stereo not given), with > 30 µM (inactive); and `Cc1ccccc1OCCSc1nnc(C)n1-c1ccccc1`, with > 30 µM (inactive); and `COc1ccc(NC(=O)c2nnn(Cc3cccc(F)c3)c2N)c(OC)c1`, with > 30 µM (inactive). As for `CNC(=O)CSc1nnc(-c2ccco2)n1-c1cccc(OC)c1`, the figure is > 30 µM (inactive); as for `CCCCSc1nc(C)[nH]c1[N+](=O)[O-]`, > 30 µM (inactive).

For the compound `CCCC1=C(C(=O)OCC)C(c2ccc(N(C)C)cc2)n2ncnc2N1` (stereo not given), the AC50 was > 30 µM (inactive). Then `CCn1ncc([N+](=O)[O-])c1C(=O)N1CCCC1`, with > 30 µM (inactive); and `Cc1cccc(C(=O)O/N=C(\N)c2cccc([N+](=O)[O-])c2)c1`, with > 30 µM (inactive); and `Cc1cc(C(=O)CN(Cc2ccc(F)cc2)S(=O)(=O)c2ccc3c(c2)OCCO3)c(C)n1C`, with > 30 µM (inactive). Then `CC(C)(C)C(=O)/C=c1\[nH]c(=O)/c(=C\c2ccc(F)cc2)s1`, with 11.9 µM; and `Cc1ccc2c(c1)COc1c3ccc(C(=O)N4CCCCC4)cc3nn1-2`, with > 30 µM (inactive). `C/C(=N/NC(=O)c1ccc(C)s1)c1ccncc1`: the AC50 is 27.3 µM. As for `Cc1cnn(C(=O)c2ccccc2Br)c1`, the figure is > 30 µM (inactive).

The values are drawn from PubChem BioAssay AID463203 (Broad Institute, 2010).
